Laboratory results from article PMC10601436 (ACS Omega, 2023).
pIC50: −log10 of the molar value. Peptide text beside a SMILES is read from it.

Target: hDPP-IV (Homo sapiens, UniProt P27487)
Test: DPP-IV inhibitory assay
Type: biochemical

Sequence of hDPP-IV (P27487 whole entry): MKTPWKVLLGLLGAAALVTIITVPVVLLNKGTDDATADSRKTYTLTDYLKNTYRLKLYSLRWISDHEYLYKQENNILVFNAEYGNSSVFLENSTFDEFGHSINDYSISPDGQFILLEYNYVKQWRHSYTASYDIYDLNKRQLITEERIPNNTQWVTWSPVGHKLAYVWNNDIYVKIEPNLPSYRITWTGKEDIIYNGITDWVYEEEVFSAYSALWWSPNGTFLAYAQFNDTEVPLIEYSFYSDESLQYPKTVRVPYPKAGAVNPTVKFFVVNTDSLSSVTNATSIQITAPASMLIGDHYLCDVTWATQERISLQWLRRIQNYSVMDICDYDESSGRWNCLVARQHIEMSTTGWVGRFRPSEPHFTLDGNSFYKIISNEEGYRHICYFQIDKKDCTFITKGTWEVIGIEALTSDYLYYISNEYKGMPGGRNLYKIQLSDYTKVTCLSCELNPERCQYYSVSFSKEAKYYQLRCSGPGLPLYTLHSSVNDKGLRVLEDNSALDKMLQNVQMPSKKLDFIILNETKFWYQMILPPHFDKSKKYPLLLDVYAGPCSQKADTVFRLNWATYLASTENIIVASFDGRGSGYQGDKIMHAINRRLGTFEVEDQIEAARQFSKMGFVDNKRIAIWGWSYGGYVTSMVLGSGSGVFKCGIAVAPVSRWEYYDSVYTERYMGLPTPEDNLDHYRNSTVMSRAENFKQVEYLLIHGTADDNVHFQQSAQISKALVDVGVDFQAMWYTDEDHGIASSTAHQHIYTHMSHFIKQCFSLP

pIC50	Compound
3.87	N[C@@H](Cc1c[nH]c2ccccc12)C(=O)N1CCC[C@H]1C(=O)NCC(=O)O [WPG] (H-Trp-Pro-Gly-OH)
3.05	CSCC[C@H](NC(=O)[C@H](CCCNC(=N)N)NC(=O)[C@@H](N)Cc1c[nH]c2ccccc12)C(=O)O [WRM] (H-Trp-Arg-Met-OH)
3.72	C[C@H](NC(=O)[C@@H](N)Cc1c[nH]c2ccccc12)C(=O)N[C@@H](Cc1c[nH]cn1)C(=O)O [WAH] (H-Trp-Ala-His-OH)
3.36	C[C@H](NC(=O)[C@@H](N)Cc1c[nH]c2ccccc12)C(=O)N1CCC[C@H]1C(=O)O [WAP] (H-Trp-Ala-Pro-OH)
3.48	CSCC[C@H](NC(=O)[C@H](C)NC(=O)[C@@H](N)Cc1c[nH]c2ccccc12)C(=O)O [WAM] (H-Trp-Ala-Met-OH)
3.47	CC(C)[C@H](NC(=O)[C@@H](N)Cc1c[nH]c2ccccc12)C(=O)NCC(=O)O [WVG] (H-Trp-Val-Gly-OH)
3.82	CC(C)C[C@H](NC(=O)[C@H](CCCNC(=N)N)NC(=O)[C@@H](N)Cc1c[nH]c2ccccc12)C(=O)O [WRL] (H-Trp-Arg-Leu-OH)
3.43	CC(C)[C@H](NC(=O)[C@@H](N)Cc1c[nH]c2ccccc12)C(=O)N[C@@H](CC(N)=O)C(=O)O [WVN] (H-Trp-Val-Asn-OH)
3.23	N[C@@H](Cc1c[nH]c2ccccc12)C(=O)N1CCC[C@H]1C(=O)N[C@@H](CO)C(=O)O [WPS] (H-Trp-Pro-Ser-OH)
3.60	CC(C)[C@H](NC(=O)[C@H](C)NC(=O)[C@@H](N)Cc1c[nH]c2ccccc12)C(=O)O [WAV] (H-Trp-Ala-Val-OH)
3.66	CSCC[C@H](NC(=O)[C@@H]1CCCN1C(=O)[C@@H](N)Cc1c[nH]c2ccccc12)C(=O)O [WPM] (H-Trp-Pro-Met-OH)
3.58	CC(C)C[C@H](NC(=O)[C@H](C)NC(=O)[C@@H](N)Cc1c[nH]c2ccccc12)C(=O)O [WAL] (H-Trp-Ala-Leu-OH)
3.68	N=C(N)NCCC[C@H](NC(=O)[C@@H](N)Cc1c[nH]c2ccccc12)C(=O)N[C@@H](CS)C(=O)O [WRC] (H-Trp-Arg-Cys-OH)
3.50	CSCC[C@H](NC(=O)[C@@H](NC(=O)[C@@H](N)Cc1c[nH]c2ccccc12)C(C)C)C(=O)O [WVM] (H-Trp-Val-Met-OH)
3.69	N=C(N)NCCC[C@H](NC(=O)[C@@H](N)Cc1c[nH]c2ccccc12)C(=O)N[C@@H](CC(=O)O)C(=O)O [WRD] (H-Trp-Arg-Asp-OH)
3.70	CC[C@H](C)[C@H](NC(=O)[C@H](C)NC(=O)[C@@H](N)Cc1c[nH]c2ccccc12)C(=O)O [WAI] (H-Trp-Ala-Ile-OH)
3.50	N[C@@H](Cc1c[nH]c2ccccc12)C(=O)N1CCC[C@H]1C(=O)N[C@@H](Cc1c[nH]cn1)C(=O)O [WPH] (H-Trp-Pro-His-OH)
3.48	CC[C@H](C)[C@H](NC(=O)[C@H](CCCNC(=N)N)NC(=O)[C@@H](N)Cc1c[nH]c2ccccc12)C(=O)O [WRI] (H-Trp-Arg-Ile-OH)
3.40	CC(C)[C@H](NC(=O)[C@@H](N)Cc1c[nH]c2ccccc12)C(=O)N1CCC[C@H]1C(=O)O [WVP] (H-Trp-Val-Pro-OH)
3.74	N[C@@H](Cc1c[nH]c2ccccc12)C(=O)N1CCC[C@H]1C(=O)N[C@@H](Cc1c[nH]c2ccccc12)C(=O)O [WPW] (H-Trp-Pro-Trp-OH)
3.26	C[C@@H](O)[C@H](NC(=O)[C@H](CCCNC(=N)N)NC(=O)[C@@H](N)Cc1c[nH]c2ccccc12)C(=O)O [WRT] (H-Trp-Arg-Thr-OH)
3.36	C[C@@H](O)[C@H](NC(=O)[C@@H]1CCCN1C(=O)[C@@H](N)Cc1c[nH]c2ccccc12)C(=O)O [WPT] (H-Trp-Pro-Thr-OH)
3.62	CC(C)[C@H](NC(=O)[C@@H](N)Cc1c[nH]c2ccccc12)C(=O)N[C@@H](Cc1c[nH]c2ccccc12)C(=O)O [WVW] (H-Trp-Val-Trp-OH)
3.34	CC(C)C[C@H](NC(=O)[C@@H]1CCCN1C(=O)[C@@H](N)Cc1c[nH]c2ccccc12)C(=O)O [WPL] (H-Trp-Pro-Leu-OH)

pIC50	Compound
3.18	C[C@H](NC(=O)[C@@H](N)Cc1c[nH]c2ccccc12)C(=O)N[C@@H](CCCNC(=N)N)C(=O)O [WAR] (H-Trp-Ala-Arg-OH)
3.45	N[C@@H](Cc1c[nH]c2ccccc12)C(=O)N1CCC[C@H]1C(=O)N[C@@H](CCC(=O)O)C(=O)O [WPE] (H-Trp-Pro-Glu-OH)
3.27	C[C@H](NC(=O)[C@H](CCCNC(=N)N)NC(=O)[C@@H](N)Cc1c[nH]c2ccccc12)C(=O)O [WRA] (H-Trp-Arg-Ala-OH)
3.61	CC(C)[C@H](NC(=O)[C@@H](N)Cc1c[nH]c2ccccc12)C(=O)N[C@@H](CO)C(=O)O [WVS] (H-Trp-Val-Ser-OH)
3.52	C[C@H](NC(=O)[C@@H](N)Cc1c[nH]c2ccccc12)C(=O)N[C@@H](CC(N)=O)C(=O)O [WAN] (H-Trp-Ala-Asn-OH)
3.13	N[C@@H](Cc1c[nH]c2ccccc12)C(=O)N1CCC[C@H]1C(=O)N[C@@H](CS)C(=O)O [WPC] (H-Trp-Pro-Cys-OH)
3.72	CC(C)[C@H](NC(=O)[C@@H](N)Cc1c[nH]c2ccccc12)C(=O)N[C@@H](CCC(=O)O)C(=O)O [WVE] (H-Trp-Val-Glu-OH)
3.29	CC(C)[C@H](NC(=O)[C@@H]1CCCN1C(=O)[C@@H](N)Cc1c[nH]c2ccccc12)C(=O)O [WPV] (H-Trp-Pro-Val-OH)
3.67	CC(C)[C@H](NC(=O)[C@@H](N)Cc1c[nH]c2ccccc12)C(=O)N[C@@H](Cc1ccc(O)cc1)C(=O)O [WVY] (H-Trp-Val-Tyr-OH)
3.40	CC(C)C[C@H](NC(=O)[C@@H](NC(=O)[C@@H](N)Cc1c[nH]c2ccccc12)C(C)C)C(=O)O [WVL] (H-Trp-Val-Leu-OH)
3.48	CC(C)[C@H](NC(=O)[C@@H](N)Cc1c[nH]c2ccccc12)C(=O)N[C@@H](CCCCN)C(=O)O [WVK] (H-Trp-Val-Lys-OH)
3.27	CC(C)[C@H](NC(=O)[C@H](CCCNC(=N)N)NC(=O)[C@@H](N)Cc1c[nH]c2ccccc12)C(=O)O [WRV] (H-Trp-Arg-Val-OH)
3.22	N=C(N)NCCC[C@H](NC(=O)[C@@H](N)Cc1c[nH]c2ccccc12)C(=O)N[C@@H](Cc1c[nH]c2ccccc12)C(=O)O [WRW] (H-Trp-Arg-Trp-OH)
3.13	N=C(N)NCCC[C@H](NC(=O)[C@@H](N)Cc1c[nH]c2ccccc12)C(=O)N1CCC[C@H]1C(=O)O [WRP] (H-Trp-Arg-Pro-OH)
3.58	N=C(N)NCCC[C@H](NC(=O)[C@@H](N)Cc1c[nH]c2ccccc12)C(=O)N[C@@H](CO)C(=O)O [WRS] (H-Trp-Arg-Ser-OH)
3.80	N=C(N)NCCC[C@H](NC(=O)[C@@H](N)Cc1c[nH]c2ccccc12)C(=O)N[C@@H](CCC(=O)O)C(=O)O [WRE] (H-Trp-Arg-Glu-OH)
3.36	C[C@H](NC(=O)[C@@H](N)Cc1c[nH]c2ccccc12)C(=O)N[C@@H](CC(=O)O)C(=O)O [WAD] (H-Trp-Ala-Asp-OH)
3.63	CC(C)[C@H](NC(=O)[C@@H](N)Cc1c[nH]c2ccccc12)C(=O)N[C@@H](CS)C(=O)O [WVC] (H-Trp-Val-Cys-OH)
3.71	NC(=O)CC[C@H](NC(=O)[C@@H]1CCCN1C(=O)[C@@H](N)Cc1c[nH]c2ccccc12)C(=O)O [WPQ] (H-Trp-Pro-Gln-OH)
3.98	C[C@H](NC(=O)[C@@H](N)Cc1c[nH]c2ccccc12)C(=O)N[C@@H](Cc1c[nH]c2ccccc12)C(=O)O [WAW] (H-Trp-Ala-Trp-OH)
3.89	NC(=O)C[C@H](NC(=O)[C@@H]1CCCN1C(=O)[C@@H](N)Cc1c[nH]c2ccccc12)C(=O)O [WPN] (H-Trp-Pro-Asn-OH)
3.52	N[C@@H](Cc1c[nH]c2ccccc12)C(=O)N1CCC[C@H]1C(=O)N1CCC[C@H]1C(=O)O [WPP] (H-Trp-Pro-Pro-OH)
3.47	CC(C)[C@H](NC(=O)[C@@H](N)Cc1c[nH]c2ccccc12)C(=O)N[C@@H](C)C(=O)O [WVA] (H-Trp-Val-Ala-OH)
3.59	CC(C)[C@H](NC(=O)[C@@H](N)Cc1c[nH]c2ccccc12)C(=O)N[C@@H](Cc1c[nH]cn1)C(=O)O [WVH] (H-Trp-Val-His-OH)

Compound	pIC50
CC(C)[C@H](N)C(=O)N1CCC[C@H]1C(=O)N[C@H](C(=O)N1CCC[C@H]1C(=O)N[C@@H](CS)C(=O)O)C(C)C [VPVPC] (H-VPVPC-OH)	4.26
CC[C@H](C)[C@H](N)C(=O)N1CCC[C@H]1C(=O)N[C@H](C(=O)N1CCC[C@H]1C(=O)N[C@H](C(=O)O)[C@@H](C)CC)[C@@H](C)CC [IPIPI] (H-IPIPI-OH)	4.32
